# Like-named read-outs stand apart in the source and are kept apart here.
# Experiments:
# HIV-IIIb = experiment: Antiviral assay in MT4 cells; format: cell-based; conditions: Human immunodeficiency virus 1, IIIB, MT4, 120 h, MT4 cells, HIV-IIIb, 5 days; read-out: EC50
# Procedure: 1 mL aliquots of 2×10^6 MT4 cells are pre-infected for 1 and 3 hours respectively at 37° C. with 25 μL (MT4) or of either cell growth medium (mock-infected) or a fresh 1:250 dilution of an HIV-IIIb concentrated ABI stock (0.004 m.o.i. for MT4 cells). Infected and uninfected cells are diluted in cell growth medium and 35 μL of 2000 (for MT4) cells is added to each well of the assay plates.
# Assay plates were then incubated in a 37° C. incubator. After 5 days of incubation, 25 μL of 2× concentrated CellTiter-Glo™ Reagent (catalog # G7573, Promega Biosciences, Inc., Madison, Wis.) was added to each well of the assay plate. Cell lysis was carried out by incubating at room temperature for 2-3 minutes, and then chemiluminescence was read using the Envision reader (PerkinElmer).
# [1] = Cytotoxicity (CC50) in MT4 cells, mock-infected; format: cell-based; conditions: human
# Procedure: Infected and uninfected cells are diluted in cell growth medium and 35 μL of 2000 (for MT4) cells is added to each well of the assay plates. Assay plates were then incubated in a 37° C. incubator. After 5 days of incubation, 25 μL of 2× concentrated CellTiter-Glo™ Reagent (catalog # G7573, Promega Biosciences, Inc., Madison, Wis.) was added to each well of the assay plate. Cell lysis was carried out by incubating at room temperature for 2-3 minutes, and then chemiluminescence was read using the Envision reader (PerkinElmer).
# OCT2 = OCT2 (Homo sapiens (Human), UniProt O15244); experiment: OCT2 inhibition assay (14C-TEA uptake, OCT2-transfected MDCKII cells); format: cell-based
# Procedure: MDCKII cells were maintained in minimal essential medium (MEM) with 1% Pen/Strep, 10% fetal bovine serum, and 0.25 mg/mL hygromycin B in an incubator set at 37° C., 90% humidity and 5% CO2. 24 hours prior to assay, media containing 5 mM sodium butyrate were added to MDCKII cells in flasks, and cells were grown to 80-90% confluence. On assay day, cells were trypsinized and resuspended in Krebs-Henseleit Buffer (KHB), pH 7.4 at […]. Cells were preincubated for 15 min in assay plate before addition of test compound or substrate.
# Test compounds were serially diluted in DMSO and then spiked (2 μL) into in 0.4 mL KHB buffer containing wild-type or OCT2-transfected cells and incubated for 10 minutes. Assay was initiated with the addition of 0.1 mL of 100 μM ^14C-TEA in KHB buffer (20 μM final concentration after mixing). The concentration of TEA is based on the Km. After 10 minutes of incubation, the assay mixture was quenched with addition of 0.5 mL of ice-cold 1×PBS buffer. Samples were then centrifuged at 1000 rpm for 5 min and supernatants were removed. Wash steps were repeated four times with ice-cold PBS. Finally, the cell pellets were lysed with 0.2N NaOH and let sit at room temperature for at least 30 min to ensure complete lysis. Samples were then counted on liquid scintillation counter and dpm counts were used to perform the following calculations. The % inhibition was calculated as follows: % inhibition=[1−{[OCT2]i−[WT]ni}/{[OCT2]ni−[WT]ni}]*100 where, [OCT2]i represents the dpm count in the presence of test compound for either OCT2 cells, […] of test compound for OCT2 cells and [WT]ni represents the dpm count in the absence of test compound for wild type cells, respectively.
# PXR (NR1I2) = PXR (NR1I2) (Homo sapiens (Human), UniProt O75469); experiment: Human PXR activation assay (luciferase reporter, DPX2 cells); format: cell-based; conditions: human
# Procedure: Luciferase Reporter Gene Assay.
# A stably transformed tumor cell line (DPX2) was plated on 96-well microtiter plates. […]. The number of viable cells was determined and the reporter gene activity was assessed. […]
# HIV-1 E138K/Q148K = format: cell-based; conditions: MT2 cells; mean EC50 mutant / mean EC50 wt
# Procedure: (§1) For the antiviral assay utilizing MT-2 cells, 50 μL of 2× test concentration of 3-fold serially diluted compound in culture medium with 10% FBS was added to each well of a 96-well plate (9 concentrations) in triplicate. MT-2 cells were infected with wild-type or mutant variants of HIV-1 for 3 hours using a volume of viral inoculum determined to produce 90% cell killing. Fifty microliters of infected cell suspension in culture medium with 10% FBS (˜1.5×10^4 cells) was then added to each well containing 50 μL of serially diluted compound. The plates with HIV-infected cultures were then incubated at 37° C. for 5 days in the presence of the tested compounds. After 5 days of incubation, 100 μL of CellTiter-Glo™ Reagent (catalog # G7571, Promega Biosciences, Inc., Madison, Wis.) was added to each well. Cell lysis was carried out by incubating at room temperature for 10 min followed by a chemiluminescence read-out.
# (§2) The chemiluminescence readout from the 10-point antiviral dose response was analyzed directly by curve fitting with equation (I) to determine the EC50.
# (§3) where y=Cell Survival, M=maximum cell survival enabled by drug protection, H=baseline cell survival without drug protection, n=Hill coefficient of the antiviral dose response, m=Hill coefficient of the cytotoxicity dose response, and [I]=inhibitor concentration.
# (§4) EC50 values (mean±standard deviation) were calculated from at least three independent experiments performed in triplicate. The fold-change in antiviral activity of tested compounds was calculated as a ratio of the mean EC50 for each mutant virus divided by the mean EC50 of the control WT virus.
# HIV-1 E92Q/N155H = format: cell-based; conditions: MT2 cells; mean EC50 mutant / mean EC50 wt
# Procedure: as §1, §2, §3, §4
# HIV-1 G140S/Q148R = format: cell-based; conditions: MT2 cells; mean EC50 mutant / mean EC50 wt
# Procedure: as §1, §2, §3, §4
# HIV-1 N155H/Q148R = format: cell-based; conditions: MT2 cells; mean EC50 mutant / mean EC50 wt
# Procedure: as §1, §2, §3, §4
# wild-type HIV-1 = experiment: Antiviral assay in MT-2 cells, wild-type HIV-1; format: cell-based; conditions: Human immunodeficiency virus 1, 120 h; MT2 cells, wild-type HIV-1, 5 days; read-out: wt
# Procedure: as §1, §2, §3, §4
# [2] = Plasma protein binding (equilibrium dialysis); format: in vitro ADME; conditions: human, plasma (sodium EDTA) versus buffer; 2 μM in plasma vs. buffer, 24 hours at 37° C.; read-out: % Free HP/Buffer
# Procedure: Plasma protein binding was determined using a HTD96b equilibrium dialyzer with a plate base, stainless steel pressure plate and Teflon bock. 9 Teflon bars, labeled sequentially from A through I, were assembled with two stainless steel connecting rods. Membranes were placed between two Teflon bars, with the membrane placed approximately 2 mm below the top edge of the bar and the lower membrane edge overlapped the bottom of all wells. The membrane was soaked for about 20 minutes in water, about 20 minutes in ethanol (30/70 v/v) and rinsed with water three times to remove the ethanol. It was soaked in PBS for at least 30 minutes. Plasma in sodium EDTA (Bioreclamation or equivalent) was used. The Plasma (not pH-adjusted) was stored at −80° C. and thawed at room temperature before use. The stock solution of the compounds tested was at 200 μM in DMSO. The quench solution used was 50 nM of an internal standard in 100% ACN. To prepare a 2 μM solution of the compound tested in plasma, 5 μL of a 200 μM stock solution was added to 495 μL of blank plasma. 100 μL plasma was added with 2 μM of test compound into one side of the well. 100 μL of buffer (for plasma vs. buffer) was added into another side of the well. The 96-well plate was covered using an adhesive sealing film and incubated for 24 hours at 37° C. under slow rotation. This procedure was replicated for each compound. 50 μL of plasma sample was put into a 96 well plate, 50 μL of buffer was added. 50 μL of buffer was put into a 96 well plate. 50 μL of plasma was added. 300 μL of quench solution was added and the plate sealed and shaken for 15 minutes. The material was centrifuged for 30 minutes at 3000 RPM and ˜250 μL was transferred into a short plate. The samples were analyzed by LC/MS. The resulting data is shown in the last row of Table 3 as “% Free” which corresponds to the percentage of compound not protein bound.
# [3] = 15 uM, DPX2 cells, % Emax relative to rifampicin, adjusted for DMSO background, read-out: PXR % inh at 15 uM (adjusted)
# Chain of PXR (NR1I2) (O75469 whole entry): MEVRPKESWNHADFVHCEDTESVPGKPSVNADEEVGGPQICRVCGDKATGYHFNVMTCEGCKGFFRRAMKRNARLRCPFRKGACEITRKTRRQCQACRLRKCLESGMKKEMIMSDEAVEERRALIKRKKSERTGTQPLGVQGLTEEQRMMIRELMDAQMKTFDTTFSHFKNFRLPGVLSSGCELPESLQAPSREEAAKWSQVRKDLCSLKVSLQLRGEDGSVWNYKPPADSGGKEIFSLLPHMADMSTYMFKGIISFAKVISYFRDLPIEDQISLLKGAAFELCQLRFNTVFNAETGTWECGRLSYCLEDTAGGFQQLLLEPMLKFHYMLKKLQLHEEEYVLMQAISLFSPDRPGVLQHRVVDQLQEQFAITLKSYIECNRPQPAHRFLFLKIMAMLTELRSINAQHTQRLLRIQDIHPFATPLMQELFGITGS
# Chain of OCT2 (O15244 whole entry): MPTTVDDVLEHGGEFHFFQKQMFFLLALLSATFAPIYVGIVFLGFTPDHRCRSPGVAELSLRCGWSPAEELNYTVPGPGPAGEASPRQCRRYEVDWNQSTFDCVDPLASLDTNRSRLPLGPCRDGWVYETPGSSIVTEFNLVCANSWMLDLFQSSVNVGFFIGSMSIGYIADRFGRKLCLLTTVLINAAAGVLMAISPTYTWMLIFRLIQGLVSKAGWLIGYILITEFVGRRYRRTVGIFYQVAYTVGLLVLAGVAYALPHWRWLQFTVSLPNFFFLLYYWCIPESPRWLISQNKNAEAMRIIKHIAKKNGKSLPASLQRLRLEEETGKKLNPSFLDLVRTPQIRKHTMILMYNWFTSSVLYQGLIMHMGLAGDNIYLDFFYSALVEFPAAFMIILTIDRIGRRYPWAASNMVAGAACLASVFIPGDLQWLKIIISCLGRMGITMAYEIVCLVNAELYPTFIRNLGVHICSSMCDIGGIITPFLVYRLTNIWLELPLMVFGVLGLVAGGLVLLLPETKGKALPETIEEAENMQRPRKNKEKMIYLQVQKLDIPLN
smiles,measurement,setting,value
CCN1C(=O)c2c(O)c(=O)c(C(=O)NCc3c(F)cc(F)cc3F)cn2[C@@H]2CCOC[C@H]21 [Compound 12],EC50,HIV-IIIb,6.26 nM
same,CC50 at 5 days,[1]; mock-infected (uninfected),36.5 µM
same,IC50,OCT2,6.4 µM
same,"inhibition at 24 h, 15 µM",PXR (NR1I2); [3],18%
O=C(NCc1c(F)cc(F)cc1F)c1cn2c(c(O)c1=O)C(=O)N(CC(F)(F)F)[C@H]1COCC[C@H]12 [Compound 31],EC50,HIV-IIIb,2.62 nM
same,CC50 at 5 days,[1]; mock-infected (uninfected),52.5 µM
same,IC50,OCT2,10 µM
same,"inhibition at 24 h, 15 µM",PXR (NR1I2); [3],1%
CCN1C(=O)c2c(O)c(=O)c(C(=O)NCc3c(F)cc(F)cc3F)cn2[C@H]2CCOC[C@H]21 [Compound 33],EC50,HIV-IIIb,2.84 nM
same,CC50 at 5 days,[1]; mock-infected (uninfected),31.1 µM
same,"inhibition at 24 h, 15 µM",PXR (NR1I2); [3],12%
same,Resistance fold shift E138K/Q148K vs. wild type,HIV-1 E138K/Q148K,5.9 fold shift
same,Resistance fold shift E92Q/N155H vs. wild type,HIV-1 E92Q/N155H,0.9 fold shift
same,Resistance fold shift G140S/Q148R vs. wild type,HIV-1 G140S/Q148R,2.5 fold shift
same,Resistance fold shift N155H/Q148R vs. wild type,HIV-1 N155H/Q148R,2.2 fold shift
same,EC50,wild-type HIV-1,2.5 nM
same,"fraction unbound at 24 h, 2 µM",[2],0.056
CCN1C(=O)c2c(O)c(=O)c(C(=O)NCc3ccc(F)cc3F)cn2[C@H]2CCOC[C@H]21 [Compound 41],EC50,HIV-IIIb,2.88 nM
same,CC50 at 5 days,[1]; mock-infected (uninfected),27.4 µM
same,"inhibition at 24 h, 15 µM",PXR (NR1I2); [3],21%
same,Resistance fold shift E138K/Q148K vs. wild type,HIV-1 E138K/Q148K,3.5 fold shift
same,Resistance fold shift E92Q/N155H vs. wild type,HIV-1 E92Q/N155H,2.1 fold shift
same,Resistance fold shift G140S/Q148R vs. wild type,HIV-1 G140S/Q148R,2.9 fold shift
same,Resistance fold shift N155H/Q148R vs. wild type,HIV-1 N155H/Q148R,1.8 fold shift
same,EC50,wild-type HIV-1,2 nM
same,"fraction unbound at 24 h, 2 µM",[2],0.057
CCN1C(=O)c2c(O)c(=O)c(C(=O)NCc3c(F)cc(F)cc3F)cn2[C@H]2COC[C@H]21 [Compound 44],EC50,HIV-IIIb,5.68 nM
same,CC50 at 5 days,[1]; mock-infected (uninfected),38 µM
same,"inhibition at 24 h, 15 µM",PXR (NR1I2); [3],32%
same,Resistance fold shift E138K/Q148K vs. wild type,HIV-1 E138K/Q148K,23.8 fold shift
same,Resistance fold shift E92Q/N155H vs. wild type,HIV-1 E92Q/N155H,2.3 fold shift
same,Resistance fold shift G140S/Q148R vs. wild type,HIV-1 G140S/Q148R,5.9 fold shift
same,Resistance fold shift N155H/Q148R vs. wild type,HIV-1 N155H/Q148R,17.7 fold shift
same,EC50,wild-type HIV-1,7.8 nM
same,"fraction unbound at 24 h, 2 µM",[2],0.068
"CCN1C(=O)c2c(O)c(=O)c(C(=O)NCc3c(F)cc(F)cc3F)cn2[C@H]2COCC[C@H]21 [Compound 56, (4aR,11aR)-5-ethyl-7-hydroxy-6,8-dioxo-N-(2,4,6-trifluorobenzyl)-1,3,4,4a,5,6,8,11a-octahydropyrano[4,3-e]pyrido[1,2-a]pyrazine-9-carboxamide]",EC50,HIV-IIIb,3.07 nM
same,CC50 at 5 days,[1]; mock-infected,4.49 µM
same,"inhibition at 24 h, 15 µM",PXR (NR1I2); [3],10%
"CCN1C(=O)c2c(O)c(=O)c(C(=O)NCc3ccc(F)c(Cl)c3F)cn2[C@H]2COCC[C@H]21 [Compound 57, (4aR,11aR)-N-(3-chloro-2,4-difluorobenzyl)-5-ethyl-7-hydroxy-6,8-dioxo-1,3,4,4a,5,6,8,11a-octahydropyrano[4,3-e]pyrido[1,2-a]pyrazine-9-carboxamide]",EC50,HIV-IIIb,2.29 nM
same,CC50 at 5 days,[1]; mock-infected,6.45 µM
same,"inhibition at 24 h, 15 µM",PXR (NR1I2); [3],3%
CN1C(=O)c2c(O)c(=O)c(C(=O)NCc3c(F)cc(F)cc3F)cn2[C@H]2CCCC[C@H]21 [Compound 59],EC50,HIV-IIIb,3.42 nM
same,CC50 at 5 days,[1]; mock-infected,11.4 µM
same,"inhibition at 24 h, 15 µM",PXR (NR1I2); [3],44%
O=C(NCc1c(F)cc(F)cc1F)c1cn2c(c(O)c1=O)C(=O)N[C@@H]1CCCC[C@@H]12 [Compound 60],EC50,HIV-IIIb,1.9 nM
same,CC50 at 5 days,[1]; mock-infected (uninfected),13.8 µM
same,"inhibition at 24 h, 15 µM",PXR (NR1I2); [3],2%
O=C(NCc1c(F)cc(F)cc1F)c1cn2c(c(O)c1=O)C(=O)N[C@H]1CCCC[C@@H]12 [Compound 61],EC50,HIV-IIIb,6.3 nM
same,CC50 at 5 days,[1]; mock-infected (uninfected),31.4 µM
same,"inhibition at 24 h, 15 µM",PXR (NR1I2),0%
O=C(NCc1c(F)cc(F)cc1F)c1cn2c(c(O)c1=O)C(=O)N[C@@H]1CCCC[C@H]12 [Compound 62],EC50,HIV-IIIb,7.3 nM
same,CC50 at 5 days,[1]; mock-infected (uninfected),24.2 µM
same,"inhibition at 24 h, 15 µM",PXR (NR1I2),0%
